Tested on: female Swiss mice
Test: Analgesic activity, writhing test (2-phenyl-1,4-benzoquinone as nociceptive agent)
Format: in vivo
Details: Mus musculus, po, 1 h, Table 1, oral route one hour before i.p. 0.02% 2-phenyl 1-4 benzoquinone, dose reducing writhes by 50%
Procedure: The studies of analgesic activity for these compounds have been carried out over 2,178 mice by using the "writhing test" method. 2-Phenylbenzoquinone was used as nociceptive agent and the material under test was administered by the oral route. In all the cases the ED50, ED16 and ED84 (minimum dose for each product which reduces the writhes by 50, 16 and 84% respectively) were calculated, as well as the 95% confidence limits for the ED50. The oral acute toxicity study (LD50 determination) has been performed using 770 Swiss mice (half males and half females) weighing 18-22 g.
A slight modification of the method described by Hendershot and Forshait J. Pharmacol. Exp. Ther. 125, 237 (1959) which employs as nociceptive agent a 0.02% hydroalcoholic solution of 2-phenyl 1-4 benzoquinone, was used. 0.2 ml Of this solution was administered by the i.p. route at a constant temperature of 37° C. The administration of this substance produced in the animals abdominal writhes which were easy to count. The animals used were female Swiss mice of weight 20 + 2 g. […] The value of ED50 was calculated according to the method of Litchfield and Wilcoxon J. Pharmacol. Exp. Ther. 99, 96 (1949).

CC(C)Cc1ccc(C(C)C(=O)O)cc1 (stereo not shown) [2(4-isobutylphenyl) propionic acid, reference compound]
ED50: 4.21 mg/kg
